Measurements reported in patent publication US9321760B2 (Merck Patent GmbH, priority 2011, dated 2016).

Biological target: P70S6K (T412E mutant) (Homo sapiens (Human), UniProt P23443, T412E)
Assay: P70S6K enzyme assay
Format: biochemical
Conditions: 3 nM P70S6K T412E mutant, 24 μM ATP, 1 μM FITC-AHA-AKRRRLSSLRA-OH substrate peptide, 90 min at 25° C.
How it was run: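 P70S6K T412E mutant (3 nM) with 24 μM ATP and 1 μM FITC-labelled S6-derived peptide in Hepes pH 7.5, MgCl2, DTT, Brij buffer; 90 min at 25° C, stopped with EDTA. Phosphorylated product and substrate peptides separated by microfluidic mobility shift; IC50 values derived.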

Sequence of P70S6K (T412E mutant) (P23443 whole entry T412E): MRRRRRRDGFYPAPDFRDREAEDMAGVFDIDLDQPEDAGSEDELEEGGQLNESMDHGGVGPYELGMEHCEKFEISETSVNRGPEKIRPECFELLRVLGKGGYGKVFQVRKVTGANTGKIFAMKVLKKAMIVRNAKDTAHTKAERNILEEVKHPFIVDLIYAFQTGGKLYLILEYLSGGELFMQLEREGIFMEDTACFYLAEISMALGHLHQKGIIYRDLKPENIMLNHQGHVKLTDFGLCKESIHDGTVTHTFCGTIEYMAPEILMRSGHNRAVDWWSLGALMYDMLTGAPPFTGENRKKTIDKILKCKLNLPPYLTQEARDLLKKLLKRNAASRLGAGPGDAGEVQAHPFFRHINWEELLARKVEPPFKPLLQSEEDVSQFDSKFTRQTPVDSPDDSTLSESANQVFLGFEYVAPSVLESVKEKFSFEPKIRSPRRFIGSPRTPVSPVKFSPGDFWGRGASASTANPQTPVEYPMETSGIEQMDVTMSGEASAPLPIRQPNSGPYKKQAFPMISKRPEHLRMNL

| IC50 [nM] | SMILES |
| --- | --- |
| 210 | COC[C@H](NC(=O)C1(N)CCN(c2ncnc(N)c2C#N)CC1)c1ccc(Cl)cc1 [Example 241, 4-Amino-1-(6-amino-5-cyano-pyrimidin-4-yl)-piperidine-4-carboxylic acid [(R)-1-(4-chloro-phenyl)-2-methoxy-ethyl]-amide] |
| 900 | Cc1ccc(C(CN2CCC2)N2CCN(c3ncnc(N)c3-c3cn[nH]c3)CC2)c(F)c1F (stereo not shown) [Example 100, 6-{4-[2-Azetidin-1-yl-1-(2,3-difluoro-4-methyl-phenyl)-ethyl]-piperazin-1-yl}-5-(1H-pyrazol-4-yl)-pyrimidin-4-ylamine] |
| 4.5 | NC[C@@H](c1ccc(C(F)(F)F)cc1)N1CCN(c2ncnc(N)c2-c2ccc(F)cc2)CC1 [Example 4, 6-{4-[(R)-2-Amino-1-(4-trifluoromethyl-phenyl)-ethyl]-piperazin-1-yl}-5-(4-fluoro-phenyl)-pyrimidin-4-ylamine] |
| 280 | C[C@@H](c1ccccc1)[C@H](CN)N1CCN(c2ncnc(N)c2-c2ccc(F)cc2)CC1 [Example 172, 6-[4-((1R,2S)-1-Aminomethyl-2-phenyl-propyl)-piperazin-1-yl]-5-(4-fluoro-phenyl)-pyrimidin-4-ylamine] |
| 19 | C=Cc1c(N)ncnc1N1CCN(C(CN)c2ccc(C(F)(F)F)cc2)CC1 (stereo not shown) [Example 19, 6-(4-(2-amino-1-(4-(trifluoromethyl)-phenyl)ethyl)piperazin-1-yl)-5-vinylpyrimidin-4-amine] |
| 40 | COc1c(N)ncnc1N1CCN(C(CN)c2ccc(C(F)(F)F)cc2)CC1 (stereo not shown) [Example 31, 6-(4-(2-amino-1-(4-(trifluoromethyl)phenyl)ethyl)piperazin-1-yl)-5-methoxypyrimidin-4-amine] |
| > 100000 | COC(=O)Cn1cc(-c2c(N)ncnc2N2CCN(C(CN3CCC3)c3cccc(C#N)c3)CC2)cn1 (stereo not shown) [Example 130, [4-(4-Amino-6-{4-[2-azetidin-1-yl-1-(3-cyano-phenyl)-ethyl]-piperazin-1-yl}-pyrimidin-5-yl)-pyrazol-1-yl]-acetic acid methyl ester] |
| 41 | NCC(c1ccc(C(F)(F)F)cc1)C1CCN(c2ncnc(N)c2Br)CC1 (stereo not shown) [Example 51, 6-{4-[2-Amino-1-(4-trifluoromethyl-phenyl)-ethyl]-piperidin-1-yl}-5-bromo-pyrimidin-4-ylamine] |
| 2800 | Nc1ncnc(N2CCC(N)(C(=O)N[C@@H](CCO)c3ccccc3)CC2)c1Cl [Example 228, 4-Amino-1-(6-amino-5-chloro-pyrimidin-4-yl)-piperidine-4-carboxylic acid ((S)-3-hydroxy-1-phenyl-propyl)-amide] |
| 50 | Nc1ncnc(N2CCN(C(CN3CCCCC3)c3cccc(F)c3)CC2)c1-c1ccc(F)cc1 (stereo not shown) [Example 64, 5-(4-Fluorophenyl)-6{4-[1-(3-fluoro-phenyl)-2-piperidin-1-yl-ethyl]-piperazin-1-yl}-pyrimidin-4-ylamine] |
| 920 | COc1ccc([C@H](CN2CCC2)N2CCN(c3ncnc(N)c3-c3ccc(F)cc3)CC2)cc1F [Example 104, 6-{4-[(R)-2-Azetidin-1-yl-1-(3-fluoro-4-methoxy-phenyl)-ethyl]-piperazin-1-yl}-5-(4-fluoro-phenyl)-pyrimidin-4-ylamine] |
| 2 | CN(C)CCOC(c1ccc(F)cc1)C1CCN(c2ncnc(N)c2-c2ccc(F)cc2)CC1 (stereo not shown) [Example 147, 5-(4-fluorophenyl)6-(4-((4-fluorophenyl)(2-(dimethlyamino)ethoxy)methyl)piperidin-1-yl)pyrimidin-4-amine] |
| 78 | CC[C@H](NC(=O)C1(N)CCN(c2ncnc(N)c2-c2cn[nH]c2)CC1)c1ccc(Cl)cc1 [Example 225, 4-Amino-1-[6-amino-5-(1H-pyrazol-4-yl)-pyrimidin-4-yl]-piperidine-4-carboxylic acid [(S)-1-(4-chloro-phenyl)-propyl]-amide] |
| 980 | Nc1ncnc(N2CCN(Cc3cc(Cl)c(Cl)cc3OC3CNC3)CC2)c1-c1ccc(F)cc1 [Example 62, 6-(4-(2-(azetidin-3-yloxy)-4,5-dichlorobenzyl)piperazin-1-yl)-5-(4-fluorophenyl)pyrimidin-4-amine] |
| 12 | CCn1cc(-c2c(N)ncnc2N2CCN(C(CN)c3ccc(C(F)(F)F)cc3)CC2)cn1 (stereo not shown) [Example 39, 6-(4-(2-amino-1-(4-(trifluoromethyl)phenyl)ethyl)piperazin-1-yl)-5-(1-ethyl-1H-pyrazol-4-yl)pyrimidin-4-amine] |
| > 1000 | NCC(c1ccc(C(F)(F)F)cc1)N1CCN(c2ncnc(N)c2O)CC1 (stereo not shown) [Example 35, 4-amino-6-(4-(2-amino-1-(4-(trifluoromethyl)phenyl)ethyl)piperazin-1-yl) pyrimidin-5-ol] |
| 4.4 | NCC(c1ccc(F)cc1)N1CCN(c2ncnc(N)c2-c2ccc(F)cc2)CC1 (stereo not shown) [Example 159, 6-{4-[2-Amino-1-(4-fluoro-phenyl)-ethyl]-piperazin-1-yl}-5-(4-fluoro-phenyl)-pyrimidin-4-ylamine] |
| 140 | N#Cc1c(N)ncnc1N1CCC(N)(C(=O)N[C@@H](CC(N)=O)c2ccc(Cl)cc2)CC1 [Example 221, 4-Amino-1-(6-amino-5-cyano-pyrimidin-4-yl)-piperidine-4-carboxylic acid [(S)-2-carbamoyl-1-(4-chloro-phenyl)-ethyl]-amide] |
| 620 | C[C@H](NC(=O)C1(N)CCN(c2ncnc(N)c2Cl)CC1)c1ccc(Cl)cc1 [Example 222, 4-Amino-1-(6-amino-5-chloro-pyrimidin-4-yl)-piperidine-4-carboxylic acid [(S)-1-(4-chloro-phenyl)-ethyl]-amide] |
| 18 | Nc1ncnc(N2CCN(C(CN3CCCCC3)c3ccc(C(F)(F)F)cc3)CC2)c1-c1ccc(F)cc1 (stereo not shown) [Example 12, 5-(4-Fluoro-phenyl)-6-{4-[2-piperidin-1-yl-1-(4-trifluoromethyl-phenyl)-ethyl]-piperazin-1-yl}-pyrimidin-4-ylamine] |
| 2.2 | NCC(c1ccc(C(F)(F)F)cc1)N1CCN(c2ncnc(N)c2-c2ccc(F)cc2)CC1 (stereo not shown) [Example 2, 6-{4-[2-Amino-1-(4-trifluoromethyl-phenyl)-ethyl]-piperazin-1-yl}-5-(4-fluoro-phenyl)-pyrimidin-4-ylamine] |
| 20000 | C[C@H](NC(=O)C1(N)CCN(c2ncnc(N)c2C(N)=O)CC1)c1ccc(Cl)cc1 [Example 244, 4-Amino-6-{4-amino-4-[(S)-1-(4-chloro-phenyl)-ethylcarbamoyl]-piperidin-1-yl}-pyrimidine-5-carboxylic acid amide] |
| 330 | NCC(c1ccccc1)N1CCN(c2ncnc(N)c2Br)CC1 (stereo not shown) [Example 5, 6-[4-(2-Amino-1-phenyl-ethyl)-piperazin-1-yl]-5-bromo-pyrimidin-4-ylamine] |
| 3.4 | NC[C@H](c1ccc(C(F)(F)F)cc1)N1CCN(c2ncnc(N)c2-c2cn[nH]c2)CC1 [Example 8, (S)-6-(4-(2-amino-1-(4-(trifluoromethyl)phenyl)ethyl)piperazin-1-yl)-5-(1H-pyrazol-4-yl)pyrimidin-4-amine] |

| SMILES | IC50 [nM] |
| --- | --- |
| Nc1ncnc(N2CCN(C(CN3CCCCC3)c3cccc(C(F)(F)F)c3)CC2)c1Br (stereo not shown) [Example 70, 5-Bromo-6{4-[1-(3-trifluoromethyl-phenyl)-2-piperidin-1-yl-ethyl]-piperazin-1-yl}-pyrimidin-4-ylamine] | > 1000 |
